Data: publication PMC7031697, “Mechanism of Activation of AMPK by Cordycepin” (Cell Chemical Biology, 2020)
Like-named read-outs stand apart in the source and are kept apart here.

Legend:
[1] = target: T1, AMPK complexes containing WT γ2 (Homo sapiens, UniProt Q9UGJ0); experiment: AMPK activity in anti-FLAG immunoprecipitates, HepG2 cells with FLAG-tagged WT AMPK-γ2; assay type: cell-based; details: 1 h, 300 μM cordycepin, 10 mM phenformin or 300 μM A-769662
T1 construct: expressed in transfected cells; host or cells: HepG2 (transient, Fugene 6)
Description: (§1) HepG2 cells ([…]) were cultured in Minimum Essential Medium (MEM) supplemented with 10% (v/v) FBS, 1% (v/v) non-essential amino acids and 1% (v/v) penicillin/streptomycin. Transient transfection of DNAs encoding FLAG-tagged AMPK-γ2 or an R531G mutant of AMPK-γ2 were carried out 36-48 hr prior to experiments using Fugene 6 according to manufacturers’ instructions. U2OS cells ([…]) were cultured in Dulbecco’s Modified Eagle’s Medium (DMEM) supplemented with 10% (v/v) FBS and 1% (v/v) penicillin/streptomycin.
(§2) HepG2 cells were transiently transfected with DNAs encoding FLAG-tagged wild type AMPK-γ2 or the R531G mutant, using Fugene 6 according to the manufacturers’ instructions. After transfection for 48 hr, cells were treated with various agents as described, and cell lysates prepared ([Hawley et al., 2018]). FLAG-tagged AMPK was then immunoprecipitated from 150 μg total protein by incubation at 4°C for 2 hr on a roller mixer with 9 μl of EZview Red anti-FLAG M2 affinity gel. After extensive washing, the immunoprecipitates were assayed for AMPK activity (50 μg per assay in a total volume of 50 μl) using the AMARA peptide (200 μM) as substrate in the presence of 200 μM AMP, 5 mM MgCl2 and 200 μM γ-^32P-ATP as described previously ([Fyffe et al., 2018]).

[2] = target: T2, AMPK complexes containing the R531G mutant (Homo sapiens, UniProt Q9UGJ0, R531G); experiment: AMPK activity in anti-FLAG immunoprecipitates, HepG2 cells with FLAG-tagged AMPK-γ2 R531G mutant; assay type: cell-based; details: 1 h, 300 μM cordycepin, 10 mM phenformin or 300 μM A-769662
T2 construct: expressed in transfected cells; host or cells: HepG2 (transient, Fugene 6)
Description: as §1, §2

human α2β2γ1 complex [3] = target: T3, human α2β2γ1 complex (Homo sapiens, UniProt P54619+P54646); experiment: AMPK assay using ATP or CoTP as co-substrate (GST-ACC1 phosphorylation); assay type: biochemical; details: for Km / estimated Vmax as phosphate donor: GST-ACC1 substrate; for Km: Mg2+ at constant 4.8 mM excess, read-out: Km as phosphate donor; for estimated Vmax as phosphate donor: Michaelis-Menten fit; for effect on allosteric activation by AMP: at high concentrations (5 mM); for allosteric activation: 30 μM AMP
T3 construct: made in house
Description: As ^32P-labelled CoTP was not available, the experiments in Figures 3C and 3D were performed using non-radioactive CoTP and utilized as co-substrate a construct of glutathione-S-transferase fused at the N-terminus of residues 60-94 of rat ACC1 ([Scott et al., 2002]), which includes the Ser79 phosphorylation site. Bacterially expressed GST-ACC (0.5 μg) was incubated for 10 min in a total volume of 25 μl with bacterially expressed human AMPK (30 ng of α2β2γ1 complex, previously phosphorylated on Thr172 using CaMKK2) with ATP or CoTP as indicated, and sufficient MgCl2 to maintain a constant 4.8 mM excess of [Mg^2+] over [ATP]. Phosphorylation of this substrate was detected using anti-pACC antibody and quantified using a LiCor Odyssey imager.

[4] = test system: AMPK purified from rat liver; experiment: Allosteric activation of purified rat liver AMPK (SAMS peptide, cell-free); assay type: biochemical
Description: AMPK (15 ng) purified from rat liver was assayed in solution using the SAMS peptide as substrate ([Fyffe et al., 2018]) in the presence of AMP or CoMP (concentrations specified in Figure legends), and either 5 mM MgCl2 and 200 μM [γ-^32P]ATP or 9.8 mM MgCl2 and 5 mM [γ-^32P]ATP, thus maintaining a constant excess of [Mg^2+] over [ATP] ([Storer and Cornish-Bowden, 1976]). Total assay volume was 25 μl.

AMPK = experiment: Effect of adenosine kinase and transport inhibitors on AMPK activation in HepG2 cells; assay type: cell-based, human; details: 1 μM ABT-702 or 0.5 μM dipyridamole; for effect of cordycepin to activate and phosphorylate AMPK: 300 μM cordycepin 1 h; for effects of AICA riboside on AMPK: 3 mM AICAR 1 h
Description: Endogenous AMPK in crude cell lysates was first immunoprecipitated using an equal mixture of anti-α1 and –α2 antibodies (150 μg protein) by incubation at 4°C for 2 hr on a roller mixer. After extensive washing, the immunoprecipitates were assayed for AMPK activity (50 μg per assay, total assay volume 50 μl) using the AMARA peptide (200 μM) as substrate in the presence of 200 μM AMP, 5 mM MgCl2 and 200 μM [γ-^32P]ATP ([Fyffe et al., 2018]).

human α2β2γ1 complex [5] = target: T3, human α2β2γ1 complex; experiment: Cell-free promotion of Thr172 phosphorylation by LKB1; assay type: biochemical; details: varying CoMP, 200 μM ATP
Description: These were as described previously ([Fyffe et al., 2018]) with some modifications. Bacterially expressed human AMPK (α2β2γ1 complex, unphosphorylated on Thr172, 500 ng) was incubated for 10 min in a total volume of 25 μl with 200 μM ATP, […] with/without the LKB1:STRAD:MO25 complex (10 ng), in the presence or absence of AMP (200 μM) or cordycepin as indicated. Aliquots were removed for Western blotting and AMPK assays.

rat liver AMPK = experiment: Cell-free inhibition of Thr172 dephosphorylation by PP2Cα; assay type: biochemical; details: fit of AMPK activity as a function of CoMP concentration; read-out: EC50 of protection against inactivation and Thr172 dephosphorylation by PP2Cα
Description: These were as described previously ([Fyffe et al., 2018]) with some modifications. Rat liver AMPK (12.5 μg/ml) was incubated in a shaking incubator at 30°C for 10 min in Hepes buffer (50 mM Na Hepes pH 7.4, 150 mM NaCl, 1 mM dithiothreitol, 0.02% (w/v) Brij-35) with MgCl2 and sufficient PP2Cα to yield about 70% inactivation in the absence of added nucleotide. Aliquots were removed for Western blotting and AMPK assay. Kinase assays were performed immediately after a further 100-fold dilution, which was sufficient to prevent dephosphorylation during the assay.

[6] = 200 μM ATP, for CoMP estimated with maximal activation constrained to 4.4-fold

T3 sequence (P54646 whole entry): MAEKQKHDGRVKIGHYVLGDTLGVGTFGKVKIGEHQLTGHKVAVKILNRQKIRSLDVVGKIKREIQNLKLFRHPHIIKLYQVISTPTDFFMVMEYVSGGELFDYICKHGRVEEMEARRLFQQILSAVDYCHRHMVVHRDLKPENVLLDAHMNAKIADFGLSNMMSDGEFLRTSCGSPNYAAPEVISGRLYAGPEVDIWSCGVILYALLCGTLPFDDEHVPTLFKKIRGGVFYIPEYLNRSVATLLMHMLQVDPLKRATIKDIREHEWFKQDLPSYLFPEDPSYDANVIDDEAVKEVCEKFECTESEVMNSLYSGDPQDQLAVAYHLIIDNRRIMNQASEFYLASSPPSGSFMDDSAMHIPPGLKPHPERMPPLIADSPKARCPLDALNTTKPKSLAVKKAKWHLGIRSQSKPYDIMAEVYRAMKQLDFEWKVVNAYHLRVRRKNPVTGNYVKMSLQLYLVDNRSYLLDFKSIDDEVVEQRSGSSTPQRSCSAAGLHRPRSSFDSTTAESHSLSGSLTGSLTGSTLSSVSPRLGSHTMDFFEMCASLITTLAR
T3 sequence (O43741 whole entry partner): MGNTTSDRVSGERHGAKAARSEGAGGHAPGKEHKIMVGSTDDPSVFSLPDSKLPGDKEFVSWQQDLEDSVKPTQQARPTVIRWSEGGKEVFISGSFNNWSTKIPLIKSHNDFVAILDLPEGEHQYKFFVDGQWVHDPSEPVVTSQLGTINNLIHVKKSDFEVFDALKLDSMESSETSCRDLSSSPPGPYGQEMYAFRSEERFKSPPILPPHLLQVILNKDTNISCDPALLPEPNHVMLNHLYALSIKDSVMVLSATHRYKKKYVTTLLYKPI
T3 sequence (P54619 whole entry): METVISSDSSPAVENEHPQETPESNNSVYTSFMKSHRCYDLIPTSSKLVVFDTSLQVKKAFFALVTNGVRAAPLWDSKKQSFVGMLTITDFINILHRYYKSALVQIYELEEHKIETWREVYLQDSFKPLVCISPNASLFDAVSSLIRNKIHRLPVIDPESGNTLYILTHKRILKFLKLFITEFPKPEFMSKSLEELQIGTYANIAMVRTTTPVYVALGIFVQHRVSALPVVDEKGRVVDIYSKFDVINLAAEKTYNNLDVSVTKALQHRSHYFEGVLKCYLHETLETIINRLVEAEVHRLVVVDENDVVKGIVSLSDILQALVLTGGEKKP
T2 sequence (Q9UGJ0 whole entry R531G, one chain of several): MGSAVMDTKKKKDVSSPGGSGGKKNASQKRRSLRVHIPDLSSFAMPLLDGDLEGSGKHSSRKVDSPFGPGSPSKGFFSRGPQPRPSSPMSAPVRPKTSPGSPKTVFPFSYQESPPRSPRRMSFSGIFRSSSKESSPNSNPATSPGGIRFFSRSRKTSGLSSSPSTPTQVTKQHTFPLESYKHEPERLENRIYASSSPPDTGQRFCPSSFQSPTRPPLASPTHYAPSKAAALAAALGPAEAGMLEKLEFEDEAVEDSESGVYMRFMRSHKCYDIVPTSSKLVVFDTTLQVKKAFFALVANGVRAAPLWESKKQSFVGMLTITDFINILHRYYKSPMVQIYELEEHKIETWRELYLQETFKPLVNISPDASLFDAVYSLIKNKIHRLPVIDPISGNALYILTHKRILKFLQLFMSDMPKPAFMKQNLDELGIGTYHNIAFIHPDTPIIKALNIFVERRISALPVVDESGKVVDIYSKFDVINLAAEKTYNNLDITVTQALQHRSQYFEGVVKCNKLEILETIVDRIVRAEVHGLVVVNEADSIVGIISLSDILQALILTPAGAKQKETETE
T1 sequence (Q9UGJ0 whole entry, one chain of several): as the sequence (Q9UGJ0 whole entry R531G, one chain of several) above, with G531R counted along it

`[H]/N=C(/N)N/C(=N/[H])NCCc1ccccc1` [phenformin] was tested, and the “activation of AMPK complexes containing WT γ2” value [1] was “activated” and the “activation of AMPK complexes containing the R531G mutant” value [2] was “not activated”.

In the case of `Nc1ncnc2c1ncn2[C@@H]1O[C@H](COP(=O)(O)OP(=O)(O)OP(=O)(O)O)[C@@H](O)[C@H]1O` [ATP], the Km (human α2β2γ1 complex [3]) is reported as 36 ± 3 µM, the “estimated Vmax as phosphate donor” value (human α2β2γ1 complex [3]) is reported as 1.02 and the “effect on allosteric activation by AMP” value (human α2β2γ1 complex [3]) is reported as “antagonize”.

`Nc1ncnc2c1ncn2[C@@H]1O[C@H](COP(=O)(O)O)[C@@H](O)[C@H]1O` [AMP, reference compound] was tested, and the allosteric activation (human α2β2γ1 complex [3]; ATP or CoTP concentrations increased to 5 mM) was “abolished”, the allosteric activation (human α2β2γ1 complex [3]; kinase assayed using either 200 μM ATP or CoTP as substrate) was 4 fold and the maximal allosteric activation ([4]; 200 μM ATP) was 4.4 ± 0.1 fold. The EC50 [4, 6] was 3.8 ± 0.2 µM and the IC50 ([4]; 200 μM ATP, read-out: IC50 (concentration giving half-maximal inhibition)) was 1.6 ± 0.1 mM.

In the case of `Nc1ncnc2c1ncn2[C@@H]1O[C@H](COP(=O)(O)OP(=O)(O)OP(=O)(O)O)C[C@H]1O` [CoTP, cordycepin triphosphate], the Km (human α2β2γ1 complex [3]) is reported as 22 ± 3 µM, the “estimated Vmax as phosphate donor” value (human α2β2γ1 complex [3]) is reported as 0.92 and the “effect on allosteric activation by AMP” value (human α2β2γ1 complex [3]) is reported as “antagonize”.

With `OCCN(CCO)c1nc(N2CCCCC2)c2nc(N(CCO)CCO)nc(N3CCCCC3)c2n1` [dipyridamole] the “effect of cordycepin to activate and phosphorylate AMPK” value (AMPK) was “blocked” and the “effects of AICA riboside on AMPK” value (AMPK) was “also blocked”.

With `Nc1ncnc2c1ncn2[C@@H]1O[C@H](COP(=O)(O)O)C[C@H]1O` [CoMP, cordycepin 5′-monophosphate] the “activation and Thr172 phosphorylation of AMPK by LKB1” value (human α2β2γ1 complex [5]) was “promoted”, the EC50 (rat liver AMPK) was 68 ± 12 µM and the “potency as an allosteric activator, less potent than AMP” value ([4]; 200 μM ATP) was “≈ 30 fold”. The IC50 ([4]; 200 μM ATP, estimated, maximal activation constrained to 4.4-fold, read-out: IC50 of inactivation) was 0.5 ± 0.18 mM, the EC50 [4, 6] was 120 ± 50 µM and the EC50 ([4]; 5 mM ATP, maximal activation constrained to 4.4-fold) was 1400 µM.

`Nc1ncnc2nc(-c3ccc(N4CCOCC4)nc3)cc(-c3cccc(Br)c3)c12` [ABT-702, 4-amino-5-(3-bromophenyl)-7-(6-morpholinopyridin-3-yl)pyrido[2,3-d]pyrimidine] was tested, and the “effect of cordycepin to activate and phosphorylate AMPK” value (AMPK) was “blocked” and the “effects of AICA riboside on AMPK” value (AMPK) was “also blocked”.

In the case of `N#Cc1c(O)c2c(-c3ccc(-c4ccccc4O)cc3)csc2[nH]c1=O` [A-769662], the “activation of AMPK complexes containing WT γ2” value [1] is reported as “activated” and the “activation of AMPK complexes containing the R531G mutant” value [2] is reported as “still activated”.
